The record followed here is patent publication US11274332B2, “Methods of administering 3,4-diaminopyridine” (SERB SA, priority 2011, dated 2022).

The nature of the series: Food-effect crossover study, adverse events after single 20 mg amifampridine phosphate in healthy subjects (Examples 10, 11). It is filed as in vivo. As for the experimental part: This was a randomized, open-label, 2-treatment, 2-period crossover study with 44 completed subjects to assess the safety, tolerability, and the effect of food on the relative bioavailability of a single dose of amifampridine phosphate.
Safety was evaluated for all subjects who take at least one dose of 3,4-DAP. Safety was evaluated by recording the incidence of adverse events (AEs), physical examination, vital signs, concomitant medications, clinical laboratory assessments, and 12-lead electrocardiogram (ECG).
Analysis for the following safety parameters was carried out on the Safety Population: AEs which included all AEs, AEs by severity, drug-related AEs, deaths, SAEs, AEs leading to study discontinuation, and most frequent AEs, standard clinical laboratory tests, vital signs, ECG measurements, routine physical examinations, and prior and concomitant medications. The cut-off for frequency of AEs reported was determined based on the data. No formal statistical testing was performed for the safety analyses; only descriptive statistics were provided. Appropriate descriptive statistics for the safety data were determined using SAS Version 9.2.
AEs were coded according to the Medical Dictionary for Regulatory Activities (MedDRA; Version 13.0). […] The occurrence of AEs was assessed continuously from the time the subject signed the VID and consent. The reporting period for non-serious AEs was from the first dose to the final study visit. The investigator determined the severity of each event and the relationship of an AE to the IP and recorded it on the source documents and AE CRF. The nature, time of onset, duration, severity, and relationship to study drug was documented, including documentation of investigator assessment and review. All events were assessed to determine if the AE was serious.
The Investigator determined the severity of each event and the event was recorded on the source documents and AE CRF. A coding of “mild” meant there was no limitation of usual activities, “moderate” meant there was some limitation of usual activities, “severe” meant there was an inability to carry out usual activities.
The reporting period for AEs that met the criteria of an SAE began from the time of signing the VID and consent form through follow-up or early termination. […] Clinical Laboratory Assessments

With `Nc1ccncc1N` [3,4-DAP, 3,4-diaminopyridine], under “Overall”, the “paraesthesias among the 93 drug-related AEs: % of events” value worked out at 54% and the “paraesthesias among the 93 drug-related AEs: events” value worked out at 50. For the setting “Overall N=47”, the “Abdominal Pain, drug-related AE: events” value is on record as 3; the “Dizziness, drug-related AE: events” value is reported as 7; the “Dysgeusia, drug-related AE: events” value stood at 3; the “Fatigue, drug-related AE: events” value is listed as 4. In addition, where the note is “Overall N=47”, the “Gastrointestinal Disorders Total, drug-related AE: % of subjects” value is 19%; the “Gastrointestinal Disorders Total, drug-related AE: events” value was 12; the “Gastrointestinal Disorders Total, drug-related AE: subjects” value is 9; the “Headache, drug-related AE: events” value is recorded as 5. For the setting “Overall N=47”, the “Hypoaesthesia Oral, drug-related AE: events” value is 6; the “Nausea, drug-related AE: events” value was found to be 4; the “Nervous System Disorders Total, drug-related AE: % of subjects” value is recorded as 57%; the “Nervous System Disorders Total, drug-related AE: events” value is recorded as 74. For the same compound, where the note is “Overall N=47”, the “Nervous System Disorders Total, drug-related AE: subjects” value turned out to be 27; the “Paraesthesia Oral, drug-related AE: events” value amounted to 30; the “Paraesthesia, drug-related AE: events” value came out at 20.
